The source of these data is US20250164476A1, “COLORIMETRIC ASSAY USING DITHIOLATE-GRAFTED NANOPARTICLES FOR HIGH-THROUGHPUT SCREENING OF CRYOPROTECTANTS” (The Government of the United States of America, as …, priority 2023, published 2025).

Data set [1] in a line: Ligand effect on the freezing of AuNP (96-well serial dilution). The settings on record: for appearance of AuNP samples in presence of test ligand: before freezing, 10 nM AuNP in 1×PBS (FIG. 5A); for type of AuNP aggregation on freezing: conclusion from frozen and post-thaw states; for colloidal color of AuNP in frozen state: frozen at −20° C. for 2 hours, serial dilution, ligands from 1 mM, sucrose 40% (FIG. 5B); for colloidal color / optical properties of AuNP at post-thaw state: thawed at room temperature for 30 minutes (FIG. 5C). As for the experimental part: In a sample well plate series (96 wells), a 2 millimolar (mM) stock solution of the test ligands was mixed with AuNP, resulting in a 1 mM AuNP-probe solution which was deposited as a highest concentration in respective top wells (using two columns or lanes of wells for each ligand), and was serially diluted by half using 2×PBS buffer for every following well. More specifically, the stock ligand concentration, 1 mM, was diluted by ½, ¼, ⅛, 1/16, 1/32, 1/64, 1/128, and 1/256 times (from top to bottom) by using 2×PBS. After finishing serial dilution of the target materials (four ligands, here), 50 microliters (μL) of 20 nM AuNP were added to each well of the well plate series to make a 10 nM AuNP-probe in 1×PBS in each well as a final concentration. […] See the resulting sample well plate series in FIG. 5A.
FIG. 5B is an image of the 96 well plate series of FIG. 5A after freezing. Specifically, the 96 well plate series was frozen at −20° C. for 2 hours, resulting in the frozen state of the samples depicted in FIG. 5B.
FIG. 5C is an image of the 96 well plate series of FIG. 5B after thawing. More specifically, the 96 well plate series of FIG. 5B was thawed at room temperature for 30 minutes, resulting the post-thaw state of FIG. 5C.

For data set [2] the following is noted: sucrose-based sandwich assay.
Protocol: More specifically, FIGS. 10A-10F show respective anti-icing samples tested including: sucrose 40% (as a negative control), AFP (RiAFP) 0.12 mg/ml, BSA 0.12 mg/ml, 10K PVA 0.12 mg/ml, 10K PVA 1 mg/ml, and zirconium acetate (ZrN) 40 mg/ml. The buffer utilized was 0.5×PBS, with the exception of ZrN which was in 80 mM HCl. For the IRI assay, each sample was prepared with 40% sucrose as a final concentration. The following procedures were performed for each sample. Initially, 2 μL of sample was dropped between two round coverslips (borosilicate, d=1.3˜1.5 cm) and sealed with grease. The sample was then inserted into a Linkam® Scientific cryostage with liquid nitrogen (LN2) control. The sample was first frozen at −50° C. for 1 min, then the temperature was increased to −20° C. at a rate of 10° C./min, followed by a slow increase in temperature to −10° C. at a speed of 1° C./min. A sample image was then taken after annealed at −10° C. for 30 minutes without interruption.
Data set [3] in a line: AuNP-TA/NTA probe colorimetric HTS titration assay for anti-icing activity. The settings on record: FIG. 8C; 0.2 mg/ml serially diluted, 1×PBS, frozen at −20° C. for 2 hours, thawed. Here is the method:
FIG. 6A is an image of a 96 well plate series titration test, utilizing an AuNP-TA/NTA probe in different test solutions at room temperature. From top to bottom there are six different testing targets: (1) AFP 0.3 mg/ml, (2) polyvinyl alcohol (PVA) 10K 0.3%, (3) bovine serum albumin (BSA) 0.3 mg/ml, (4) ethylene glycol (EG) 50%, (5) glycerol (Gly) 50%, and (6) 80 mg/ml zirconium acetate (ZrA). The buffer was 1×PBS except for the last sample ZrA, which was in 40 mM HCl (because ZrA is only active in acidic conditions). The target samples were diluted in rows by ½, ¼, ⅛, 1/16, 1/32, 1/64, 1/128, 1/256, 1/512, 1/1024, 1/2048 and 1/4096 times (from left to right) using 2×PBS or 80 mM HCl (for ZrA). Next, 50 μL of target materials were mixed with 50 μL of 20 nM AuNP-probe to make a final 1×PBS, or 40 mM HCl for the last sample, and 10 nM of AuNP probe in each well. […]
In general, titration is a common laboratory method for quantitative chemical analysis to determine the concentration of an identified analyte in terms of activity. […] Thus, it is necessary to obtain a quantified value or parameter in order to compare different test results in different conditions. […]

`O=C(O)CCCCC1CCSS1` (stereo not shown) [TA, thioctic acid]: in data set [1], the “appearance of AuNP samples in presence of test ligand” value (from here on “appearance of AuNP samples”) is given as “well-dispersed without any color changes”, the “type of AuNP aggregation on freezing” value is “irreversible aggregation”, the “colloidal color of AuNP in frozen state” value is given as “turned translucent at the highest concentrations” and the “colloidal color / optical properties of AuNP at post-thaw state” value (“colloidal color / optical properties” for short) is “remained pale at the highest concentration”.

Turning to `OC[C@H]1O[C@@](CO)(O[C@H]2O[C@H](CO)[C@@H](O)[C@H](O)[C@H]2O)[C@@H](O)[C@@H]1O` [sucrose], in data set [1], the “appearance of AuNP samples” value is “well-dispersed without any color changes”; the “colloidal color of AuNP in frozen state” value is “changed from the original red (top well, at the highest concentration) to purple, and finally to pale purple”.

For the molecule bovine serum albumin [BSA], the “anti-icing effect in traditional IRI test” value in data set [2] is “confirmed”. Besides, the “anti-icing effects from concentration-dependent color changes” value in data set [3] is listed as “low-level anti-icing effects”.

Take “nitrilotriacetic acid modified thioctic acid [TA-NTA]”: in data set [1], the “appearance of AuNP samples” value was “well-dispersed without any color changes”, the “type of AuNP aggregation on freezing” value is given as “reversible aggregation”, the “colloidal color of AuNP in frozen state” value is given as “turned translucent at the highest concentrations” and the “colloidal color / optical properties” value is “almost fully recovered their intrinsic optical properties”.

As to “sulfonate modified thioctic acid [TA-SO3]”, in data set [1], the “appearance of AuNP samples” value is “well-dispersed without any color changes”, the “type of AuNP aggregation on freezing” value was “reversible aggregation”, the “colloidal color of AuNP in frozen state” value was “red at the highest concentration without any aggregation” and the “colloidal color / optical properties” value is on record as “almost fully recovered their intrinsic optical properties”.
